Measurements taken from patent US5428018A, “Phenylalanine analogs of bombesin” (Merrell Dow Pharmaceuticals Inc., priority 1994, dated 1995).
Where two headings read alike, the source gives them in different places. *1 amine or outer side, *2 acyl side, *3 side chain or, on linkers, in order; H or OH if unused. Where a SMILES comes first, the peptide text is derived from it. [ ]: non-standard residue; d: D form. The star is where a group is joined. X2 = CC(C)C[C@@H](C(N)=O)S(=O)(=O)C[C@H](Cc1ccccc1)N*; X1 = CN(/C(=C\c1ccccc1)C(=O)[*:2])[*:1]; pGlu = O=C1CC[C@@H](C(=O)O)N1

What was measured:
bombesin receptor [1] = biological target: T1, bombesin receptor (Mus musculus, UniProt P21729); experiment: Phosphatidylinositol (PI) turnover in chopped mouse pancreas; type: cell-based
T1 construct: from tissue
Protocol: (§1) Pept. […] Pept 32: 241-251, 1991.
Pancrea from mice were chopped at 350 μm with a tissue chopper and pooled in Krebs-Hepes buffer [118 mM NaCl, 1.2 mM K2 PO4, 4.7 mM KCl, 1.2 mM MgSO4, 1.0 mM CaCl2, 11.7 mM glucose, 20 mM Hepes (pH 7.4)]. The chopped tissue was washed once with oxygenated Krebs-Hepes,then incubated for 30 minutes in 37° C. oxygenated Krebs-Hepes buffer with fresh buffer after 15 minutes. The tissue was then incubated in this buffer containing 200 μCi of [^3 H]inositot at 37° C. for 1 hour. The tissue was then washed twice and incubated for another 30 minutes in oxygenated Krebs-Hepes (containing 10 mM Li+) at 37° C. and with fresh buffer change after 15 minutes. Portions of the tissue mass (approximately 10 mg per assay tube) were then placed in Li+ buffer with protease inhibitors (40 μg/ml bacitracin, 4 μg/ml leupeptin, 4 μg/ml chymostatin, 0.8 μg/ml thiorphan), 0.1% BSA, and 0.1-1000 μM peptide. After 60 minutes at room temperature, the phosphatidylinositol turnover was terminated by the addition of 940 μl chloroform:methanol (1:2), followed by 310 μl chloroform, followed by 310 μl water. Each tube was then vortexed three times for 5 seconds each time and then centrifuged at […] for 8 minutes to separate the phases. 50 μl of the bottom phase (chloroform) was withdrawn from each tube and placed in a counting vial, dried, and counted in scintillation fluid. 900 μl of the top (aqueous) phase was then mixed with 2.1 ml water and loaded onto a 0.5 ml Biorad AG-1×8 (formate) ion exchange column. The material on the columns was washed in order with: 1) 10 ml of water 2) 5 ml of […] disodium tetraborate/60 mM sodium formate 3) 10 ml of 1M ammonium formate in 0.1M formic acid. The final (third) wash was collected and one ml was mixed with 14 ml of Bio-Safe or E-Colume scintillant and counted. The ratio of these counts (total inositol phosphates) to the corresponding organic phase counts (inositol incorporated into the tissue) was then calculated for each sample. The ratios in the presence of test compound and/or standards were then compared to the ratios for control tubes (i.e., no stimulating agonist). The abilities of test compounds to stimulate phosphatidylinositol turnover were determined with the aid of a computer program.

[2] = tested on: cell surface receptors that bind bombesin; settings: background section; read-out: KD of high-affinity cell surface receptors that bind bombesin; cited from earlier work
bombesin receptor [3] = biological target: T1, bombesin receptor; experiment: Competitive binding of 125I-GRP to the bombesin receptor in mouse pancreas membranes
Protocol: as §1
The pancreas from one or more mice were pooled and homogenized in 50 mM HEPES (pH 7.4) containing 120 mM NaCl, 5 mM KCl, and protease inhibitors (1 μg/ml aprotinin, leupeptin, pepstatin; 4 μg/ml bacitracin, antipain, bestatin; 100 μM PMSF; 1 mM EDTA) at 4° C. and centrifuged at 37,500 × g for 15 minutes. The pellet was resuspended in 50 mM HEPES (pH 7.4) containing 10 mM EDTA, 300 mM KCl, and protease inhibitors, and then incubated for 30 minutes at 4° C. The suspension was centrifuged as above and the pellet was washed two times in 50 mM HEPES (pH 7.4) containing 0.8 μg/ml thiorphan and protease inhibitors, and again centrifuged. The tissue was then resuspended in incubation buffer (1 ml per 4 mg pancreas) and incubated for 15 minutes at room temperature, then 250 μl were added to each assay tube to commence the assay. The assay tubes contained incubation buffer consisting of 50 mM HEPES (pH 7.4), 0.5% BSA, protease inhibitors, 2 mM MnCl2, 0.8 μg/ml thiorphan, 1 μM somatostatin, and concentrations of ^125 I-GRP and peptides as needed in a final volume of 500 μl. The assay was allowed to proceed to equilibrium for 90 minutes at room temperature. After this time, the contents of each tube were rapidly filtered over Whatman GF/B filters presoaked in 0.1% polyethyleneimine and the tubes and filters were rapidly washed three times with ice-cold 50 mM HEPES (pH 7.4). Filter-bound radioactivity was quantitated in a gamma counter. Competition of iodinated GRP binding by test compounds or standards was expressed as a percentage of ^125 I-GRP binding in the absence of peptide. Affinity and maximal binding were calculated with LIGAND (Biosoft, Cambridge, UK).

T1 sequence (P21729 whole entry): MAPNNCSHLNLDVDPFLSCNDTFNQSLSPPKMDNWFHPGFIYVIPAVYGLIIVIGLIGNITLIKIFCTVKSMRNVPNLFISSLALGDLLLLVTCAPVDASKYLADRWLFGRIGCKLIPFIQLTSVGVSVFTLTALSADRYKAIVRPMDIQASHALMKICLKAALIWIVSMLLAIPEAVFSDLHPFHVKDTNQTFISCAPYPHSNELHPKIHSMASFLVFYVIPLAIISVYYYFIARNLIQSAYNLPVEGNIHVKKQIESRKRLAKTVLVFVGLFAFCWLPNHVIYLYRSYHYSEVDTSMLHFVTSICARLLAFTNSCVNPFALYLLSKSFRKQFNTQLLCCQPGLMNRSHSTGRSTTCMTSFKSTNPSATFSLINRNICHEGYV

Compound	Agonist (bombesin receptor [1])	Antagonist (bombesin receptor [1])	Kd (bombesin receptor [3]) [nM]	also measured
CSCC[C@H](NC(=O)[C@H](CC(C)C)NC(=O)[C@H](Cc1cnc[nH]1)NC(=O)CNC(=O)[C@@H](NC(=O)[C@H](C)NC(=O)[C@H](Cc1c[nH]c2ccccc12)NC(=O)[C@H](CCC(N)=O)NC(=O)[C@H](CC(N)=O)NC(=O)CNC(=O)[C@H](CC(C)C)NC(=O)[C@H](CCCN=C(N)N)NC(=O)[C@H](CCC(N)=O)NC(=O)[C@@H]1CCC(=O)N1)C(C)C)C(N)=O [Analog II, Bombesin]	+	-		Kd [2]: 1 nM
CSCC[C@H](NC(=O)[C@H](Cc1ccccc1)NC(=O)[C@H](Cc1c[nH]cn1)NC(=O)CNC(=O)[C@@H](NC(=O)[C@H](C)NC(=O)[C@H](Cc1c[nH]c2ccccc12)NC(=O)[C@H](CCC(N)=O)NC(=O)[C@@H]1CCC(=O)N1)C(C)C)C(N)=O [Analog III, Litorin]	+	-		
COC(=O)/C(=C/c1ccccc1)NC(=O)[C@H](CC(C)C)NC(=O)[C@H](Cc1c[nH]cn1)NC(=O)CNC(=O)[C@@H](NC(=O)[C@H](C)NC(=O)[C@H](Cc1c[nH]c2ccccc12)NC(=O)[C@H](CCC(N)=O)NC(=O)[C@@H](Cc1ccccc1)NC(C)=O)C(C)C [Analog IV, (Ac-D-Phe^1,Leu^8,Δ^Z Phe9)litorin-OMe]			1.18	
CC(C)C[C@@H](C(N)=O)S(=O)(=O)C[C@H](Cc1ccccc1)NC(=O)[C@H](Cc1c[nH]cn1)NC(=O)CNC(=O)[C@@H](NC(=O)[C@H](C)NC(=O)[C@H](Cc1c[nH]c2ccccc12)NC(=O)[C@H](CCC(N)=O)NC(=O)[C@@H]1CCC(=O)N1)C(C)C [Analog IX, (Phe^8 .PSI.[CH2 SO2]Leu^9 litorin] ([pGlu]QWAVGH-X2; C-terminus assumed)		30	9.9	Agonist/antagonist character in words (bombesin receptor [1]; text under Table 1): antagonist
COC(=O)/C(=C\c1ccccc1)NC(=O)[C@H](CC(C)C)NC(=O)[C@H](Cc1c[nH]cn1)NC(=O)CNC(=O)[C@@H](NC(=O)[C@H](C)NC(=O)[C@H](Cc1c[nH]c2ccccc12)NC(=O)[C@H](CCC(N)=O)NC(=O)[C@@H](Cc1ccccc1)NC(C)=O)C(C)C [Analog VII, (Ac-D-Phe^1,Leu^8,Δ^E Phe^9)litorin-OMe]			18.6	
COC(=O)/C(=C/c1ccccc1)N(C)C(=O)[C@H](CC(C)C)NC(=O)[C@H](Cc1c[nH]cn1)NC(=O)[C@@H](C)NC(=O)[C@@H](NC(=O)[C@H](C)NC(=O)[C@H](Cc1c[nH]c2ccccc12)NC(=O)[C@H](CCC(N)=O)NC(=O)[C@@H](Cc1ccccc1)NC(C)=O)C(C)C [Analog VIII, (Ac-D-Phe^1,D-Ala^6,Leu^8,N(Me)Δ^Z Phe^9) litorin-OMe] (Ac-[dF]QWAV[dA]HL[X1]-OMe)				Kd (bombesin receptor [3]; competitive binding vs 125I-GRP, mouse pancreas, read-out: Kd): 65.3 nM
